# Read-outs that look alike come from different tables or passages of the source.
# Legend:
# [1] = system: NCI-H460; experiment: Human cancer cell growth inhibition assay (ATP assay), NCI-H460; format: cell-based; details: Homo sapiens, NCI-H460, 96 h
# [2] = target: T1, human TRPV1 (Homo sapiens, UniProt Q8NER1); experiment: In vitro Ca2+ flux assay in human TRPV1 transfected HEK 293 cells; format: cell-based; details: Means±SEM from three independent experiments
# T1 construct: DYK (FLAG) tag from vector pcDNA3.1+/C-(K)DYK (C); host or cells: FreeStyle 293-F cells (HEK 293), transient transfection
# [3] = target: T2, human TRPA1 (Homo sapiens, UniProt O75762); experiment: In vitro Ca2+ flux counter-screen in human TRPA1 overexpressing cells; format: cell-based
# T2 construct: expressed in transfected cells; host or cells: overexpressing cells
# [4] = target: T3, human TRPV3 (Homo sapiens, UniProt Q8NET8); experiment: In vitro Ca2+ flux counter-screen in human TRPV3 overexpressing cells; format: cell-based
# T3 construct: expressed in transfected cells; host or cells: overexpressing cells
# T3 sequence (Q8NET8 1-790): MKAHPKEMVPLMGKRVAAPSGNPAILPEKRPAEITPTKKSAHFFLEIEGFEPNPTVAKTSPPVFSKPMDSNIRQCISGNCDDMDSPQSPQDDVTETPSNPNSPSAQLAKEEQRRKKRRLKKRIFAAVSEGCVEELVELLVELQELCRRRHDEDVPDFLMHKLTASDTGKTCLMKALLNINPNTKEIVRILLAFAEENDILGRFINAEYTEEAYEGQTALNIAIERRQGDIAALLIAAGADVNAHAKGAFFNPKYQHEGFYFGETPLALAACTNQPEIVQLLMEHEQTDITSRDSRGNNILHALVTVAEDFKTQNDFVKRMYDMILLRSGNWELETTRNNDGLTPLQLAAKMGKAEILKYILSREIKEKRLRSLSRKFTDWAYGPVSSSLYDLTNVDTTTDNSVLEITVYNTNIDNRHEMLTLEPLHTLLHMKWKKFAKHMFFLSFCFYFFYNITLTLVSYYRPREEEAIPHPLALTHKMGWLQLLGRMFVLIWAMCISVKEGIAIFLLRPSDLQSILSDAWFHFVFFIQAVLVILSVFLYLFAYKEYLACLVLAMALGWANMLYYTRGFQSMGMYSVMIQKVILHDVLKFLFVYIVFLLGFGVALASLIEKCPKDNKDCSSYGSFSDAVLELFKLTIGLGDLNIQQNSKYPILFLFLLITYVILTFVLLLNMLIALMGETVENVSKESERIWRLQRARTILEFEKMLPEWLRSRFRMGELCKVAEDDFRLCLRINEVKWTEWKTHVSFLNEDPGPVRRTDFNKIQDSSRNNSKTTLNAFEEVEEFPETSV
# [5] = system: MDA-MB-231; experiment: Human cancer cell growth inhibition assay (ATP assay), MDA-MB-231; format: cell-based; details: Homo sapiens, MDA-MB-231, 96 h
# [6] = system: OVCAR-8; experiment: Human cancer cell growth inhibition assay (ATP assay), OVCAR-8; format: cell-based; details: Homo sapiens, OVCAR-8, 96 h
# [7] = system: MDA-MB-231 cell invasion; experiment: Cancer cell invasion assay, MDA-MB-231; format: cell-based, human; details: 24 h
# Procedure: A cancer cell invasion assay was developed based on literature protocols (Methods 2005, 37, 208; EMBO J 2002, 21, 6289; Cellular Signalling 2012, 24, 1276.). Membrane matrix gel (Cat #A1413201, ThermoFisher) was diluted in ice-cold, serum-free RPMI 1640 Medium (Cat #31800022, ThermoFisher) at a concentration of 0.5-0.6 mg/mL. Then it was added to the upper compartment (100 μL per cup) of millicell inserts (Cat #PI8P01250, ThermoFisher) placed in a 24-well plate (Part no. 229123, Celltreat). The plate was incubated at 37° C. for 2 h to allow the liquid gel to solidify. RPMI 1640 Medium supplemented with 10% FBS (300 μL) was added to the well of the plate (lower compartment) as attractant, then DMSO or compounds were added. Human cancer cells (1×10^5 cells in 200 μL of RPMI 1640 Medium) were added to the upper compartment of the insert, then DMSO or compounds were added. After the plate was incubated at 37° C. for 24 h, the cells were fixed on the lower side of the insert membrane with 4% formaldehyde and stained with 1% crystal violet (Part no. IS12146, Innovating Science). The invaded cells on the lower side of the filter were counted under an inverted microscope equipped with either a 4× or a 10× objective (FIG. 11). The cell numbers from 5 random views were averaged and plotted as percentage against the DMSO control (FIG. 12A).
# [8] = system: Src protein activation in MDA-MB-231 cells; experiment: Cancer cell immunocytochemistry assay, Phospho-Src (Y416), MDA-MB-231; format: cell-based, human; details: at about 40% of IC50 concentration from cell growth inhibition assay, 4 h
# Procedure: Human cancer cells (15,000 cells/well) in 96 well half area microplate (Cat #3882, Corning) were incubated overnight at 37° C., then compounds or DMSO control were added to the cell culture and incubated at 37° C. for 1-6 h. The cells were sequentially fixed with 4% formalin, permeabilized with 0.5% Triton X-100, blocked with 5% BSA in PBS, incubated with Human Phospho-Src (Y416) Antibody (Cat #MAB2685, R&D Systems) at rt for 2 h, incubated with the secondary antibody Goat Ant-Rabbit IgG H&L (Alexa Fluor 488) (Cat #ab150077, abeam) for 45 min, and incubated with DAPI (Cat #D9542, Sigma-Aldrich) for 5 min. Finally, the cells were washed and covered with PBS. The cell images were visualized on an inverted fluorescence microscope (Leica DMIL Fluorescent Inverted Microscope with Digital Camera, Leica Microsystems). Pictures were taken [FIGS. 14A-C. Green: Human Phospho-Src (Y416), the activated form of the Src protein; Blue: DAPI (stain nucleus of cell)]. The fluorescence intensity values from 5 random cells were averaged, subtracted by the background value (area between cells) and the blank value [the blank control without the Human Phospho-Src (Y416) Antibody], then plotted as percentage against the DMSO control to indicate the effects of compound treatment on the cellular Src kinase phosphorylation levels in the cancer cells (FIGS. 15A-D).
# [9] = counter-screen, read-out: TRPA1 EC50
# [10] = counter-screen, read-out: TRPV3 EC50
# [11] = 4 days, Means±SEM from three independent experiments, read-out: NCl-H460, IC50
# [12] = 4 days, Means±SEM from three independent experiments, read-out: MDA-MB-231, IC50
# [13] = 4 days, Means±SEM from three independent experiments, read-out: OVCAR-8, IC50
# T1 sequence (Q8NER1 whole entry): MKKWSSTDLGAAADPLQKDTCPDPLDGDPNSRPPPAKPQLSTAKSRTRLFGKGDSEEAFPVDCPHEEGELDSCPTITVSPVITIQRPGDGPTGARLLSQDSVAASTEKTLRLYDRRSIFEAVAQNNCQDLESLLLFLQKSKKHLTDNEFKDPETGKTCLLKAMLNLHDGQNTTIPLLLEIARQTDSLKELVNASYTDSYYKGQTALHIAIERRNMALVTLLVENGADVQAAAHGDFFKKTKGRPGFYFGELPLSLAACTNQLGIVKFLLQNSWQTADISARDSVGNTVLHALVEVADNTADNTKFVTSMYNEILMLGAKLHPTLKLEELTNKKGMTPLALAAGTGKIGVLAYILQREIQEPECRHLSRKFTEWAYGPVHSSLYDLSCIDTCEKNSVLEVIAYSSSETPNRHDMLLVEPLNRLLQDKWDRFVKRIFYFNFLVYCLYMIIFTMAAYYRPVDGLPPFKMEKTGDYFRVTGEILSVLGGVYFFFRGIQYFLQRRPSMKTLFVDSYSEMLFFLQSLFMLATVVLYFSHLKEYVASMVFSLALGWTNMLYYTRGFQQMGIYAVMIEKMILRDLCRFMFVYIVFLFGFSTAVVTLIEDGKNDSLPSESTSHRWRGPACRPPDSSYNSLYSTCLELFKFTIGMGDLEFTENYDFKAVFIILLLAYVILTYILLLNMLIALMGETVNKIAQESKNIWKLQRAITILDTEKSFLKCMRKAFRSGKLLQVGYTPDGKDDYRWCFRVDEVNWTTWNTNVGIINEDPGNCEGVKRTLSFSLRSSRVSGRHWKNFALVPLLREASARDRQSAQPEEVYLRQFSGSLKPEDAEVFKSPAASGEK
# T2 sequence (O75762 whole entry): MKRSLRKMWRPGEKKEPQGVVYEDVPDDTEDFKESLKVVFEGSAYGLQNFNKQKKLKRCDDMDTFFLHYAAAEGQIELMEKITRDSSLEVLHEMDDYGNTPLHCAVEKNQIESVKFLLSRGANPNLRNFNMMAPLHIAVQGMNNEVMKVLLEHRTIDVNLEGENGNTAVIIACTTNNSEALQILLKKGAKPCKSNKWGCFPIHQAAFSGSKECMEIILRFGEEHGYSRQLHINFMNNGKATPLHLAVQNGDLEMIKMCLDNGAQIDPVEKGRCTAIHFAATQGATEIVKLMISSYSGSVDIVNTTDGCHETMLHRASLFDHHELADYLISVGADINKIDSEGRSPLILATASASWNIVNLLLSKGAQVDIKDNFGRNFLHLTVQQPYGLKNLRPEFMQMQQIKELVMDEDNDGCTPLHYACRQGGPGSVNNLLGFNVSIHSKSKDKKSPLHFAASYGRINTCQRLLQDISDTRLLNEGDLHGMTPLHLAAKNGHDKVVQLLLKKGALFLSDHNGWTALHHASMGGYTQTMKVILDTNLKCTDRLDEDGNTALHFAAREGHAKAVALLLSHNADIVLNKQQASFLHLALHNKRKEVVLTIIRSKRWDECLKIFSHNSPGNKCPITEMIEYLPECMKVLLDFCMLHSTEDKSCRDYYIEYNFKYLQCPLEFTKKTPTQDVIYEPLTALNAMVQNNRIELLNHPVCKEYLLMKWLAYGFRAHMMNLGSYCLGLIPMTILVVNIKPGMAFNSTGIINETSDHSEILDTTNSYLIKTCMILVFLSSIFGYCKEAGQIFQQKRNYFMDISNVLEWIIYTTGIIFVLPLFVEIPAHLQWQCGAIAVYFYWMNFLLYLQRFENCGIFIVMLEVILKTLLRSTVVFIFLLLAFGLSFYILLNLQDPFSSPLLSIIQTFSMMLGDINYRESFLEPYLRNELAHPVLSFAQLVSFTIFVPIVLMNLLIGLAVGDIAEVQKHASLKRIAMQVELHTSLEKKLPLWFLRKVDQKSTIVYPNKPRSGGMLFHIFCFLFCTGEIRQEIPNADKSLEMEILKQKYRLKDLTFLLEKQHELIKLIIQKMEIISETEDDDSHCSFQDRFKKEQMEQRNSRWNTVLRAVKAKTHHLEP
SMILES,EC50 ([2]; read-out: TRPV1 EC50),"EC50 [3, 9]","EC50 [4, 10]","IC50 [1, 11]","IC50 [5, 12]","IC50 [6, 13]","IC50 ([1]; read-out: NCl-H460, IC50, μM)","IC50 ([5]; read-out: MDA-MB-231, IC50, μM)","IC50 ([6]; read-out: OVCAR-8, IC50, μM)",inhibition of MDA-MB-231 cell invasion [7],cellular Src kinase phosphorylation levels [8],EC50 ([2]; TRPV1 EC50 (μM)),EC50 [3],EC50 [4]
COc1cc(CC(=O)N/C=C/c2ccc(C(F)(F)F)cc2)ccc1N [YB-17],0.34 to 1.1 µM,> 10 µM,> 10 µM,–,–,–,139 ± 19 µM,140 ± 22 µM,161 ± 26 µM,–,–,–,–,–
COc1cc(CC(=O)N/C=C/c2ccc(Cl)cc2)ccc1N [YB-18],0.34 to 1.1 µM,> 10 µM,> 10 µM,133 ± 18 µM,69 ± 16 µM,200 ± 21 µM,–,–,–,–,–,–,–,–
COc1cc(CC(=O)N/C=C/c2cccc(C(F)(F)F)c2)ccc1N [YB-21],0.34 to 1.1 µM,> 10 µM,> 10 µM,103 ± 13 µM,101 ± 20 µM,65 ± 14 µM,–,–,–,dose-dependently inhibited,–,–,–,–
COc1cc(CC(=O)N/C=C/c2ccc(C(F)(F)F)cc2)ccc1OC(=O)N1CCCCC1CN(C)C(=O)OC(C)(C)C (stereo not shown) [YB-31],–,–,–,–,–,–,–,–,–,–,–,> 10 µM,> 10 µM,> 10 µM
CNCC1CCCCN1C(=O)Oc1ccc(CC(=O)N/C=C/c2ccc(C(F)(F)F)cc2)cc1OC (stereo not shown) [YB-35],–,–,–,–,–,–,–,–,–,–,–,0.71 ± 0.14 µM,> 10 µM,> 10 µM

# Continued, in another order:
EC50 ([2]; read-out: TRPV1 EC50),"EC50 [3, 9]","EC50 [4, 10]","IC50 [1, 11]","IC50 [5, 12]","IC50 [6, 13]",SMILES,"IC50 ([1]; read-out: NCl-H460, IC50, μM)","IC50 ([5]; read-out: MDA-MB-231, IC50, μM)","IC50 ([6]; read-out: OVCAR-8, IC50, μM)",inhibition of MDA-MB-231 cell invasion [7],cellular Src kinase phosphorylation levels [8],EC50 ([2]; TRPV1 EC50 (μM)),EC50 [3],EC50 [4]
–,> 10 µM,> 10 µM,117 ± 16 µM,103 ± 18 µM,100 ± 15 µM,COc1cc(CC(=O)N/C=C/c2ccc(-c3ccccc3)cc2)ccc1N [YB-19],–,–,–,–,–,–,–,–
–,> 10 µM,> 10 µM,279 ± 42 µM,86 ± 14 µM,283 ± 38 µM,COc1ccc(/C=C/NC(=O)Cc2ccc(N)c(OC)c2)cc1 [YB-20],–,–,–,–,–,–,–,–
–,> 10 µM,> 10 µM,84 ± 12 µM,74 µM,58 µM,COc1cc(CC(=O)N/C=C/c2cc(C(F)(F)F)cc(C(F)(F)F)c2)ccc1O [YB-22],–,–,–,dose-dependently inhibited,significantly reduced the cellular Src kinase phosphorylation levels,–,–,–
–,> 10 µM,> 10 µM,88 µM,90 ± 12 µM,73 µM,COc1cc(CC(=O)N/C=C/c2ccc(C#N)cc2)ccc1O [YB-23],–,–,–,dose-dependently inhibited,significantly reduced the cellular Src kinase phosphorylation levels,–,–,–
> 10 µM,> 10 µM,> 10 µM,–,–,–,COc1cc(CC(=O)N/C=C/c2ccc(C(F)(F)F)cc2)ccc1NC(=O)CCCC/C=C/C(C)C [YB-29],–,–,–,–,–,–,–,–
8.8 ± 0.9 µM,> 10 µM,> 10 µM,–,–,–,COc1cc(CC(=O)N/C=C/c2ccc(C(F)(F)F)cc2)ccc1NC(C)=O [YB-30],–,–,–,–,–,–,–,–

# — patent publication US20240116856A1 (Young BioPharma, LLC, priority 2020, published 2024)
